Residues, ends and D or L forms follow the SMILES beside them.
Assays:
[1] = system: human peripheral blood mononuclear cells (PBMCs); test: Viability of PBMCs by MTT assay; type: cell-based; conditions: compound at 100 μM, additional 4 hours with MTT
From the text: Further evidence that compounds of Formula I are valuable inhibitors of ICE is provided by their ability to inhibit IL-1β production in human peripheral blood mononuclear cells (PBMCs) as described herein. PBMCs are isolated from heparinized blood by centrifugation over a ficoll cushion, then washed three times with phosphate-buffered saline. PBMCs are suspended in a medium containing RPMI 1640 with glutamine, penicillin, streptomycin and 2% human AB serum, then plated at 10^6 cells per well in 96-well flat bottom plates. PBMCs are stimulated overnight with 10 ng/mL of lipopolysaccharide (LPS, E. Coli strain 0111:B4; Calbiochem) in the presence or absence of a compound of Formula I. Medium is harvested and the level of mature IL-1β was determined using an ELISA kit from R & D Systems. Cells were cultured for an additional 4 hours in the presence of 3-(4,5-dimethylthiazol-2-yl)-2,5-diphenyltetrazolium bromide (MTT) to determine viability.

[2] = molecular target: T1, ICE (interleukin-1β converting enzyme) (Homo sapiens, UniProt P29466); test: ICE inhibition, fluorogenic Ac-Tyr-Val-Ala-Asp-AMC hydrolysis progress curves (Ki and kon); type: biochemical; conditions: [I]=2 or 4 μM
T1 sequence (P29466 120-297 limits assumed): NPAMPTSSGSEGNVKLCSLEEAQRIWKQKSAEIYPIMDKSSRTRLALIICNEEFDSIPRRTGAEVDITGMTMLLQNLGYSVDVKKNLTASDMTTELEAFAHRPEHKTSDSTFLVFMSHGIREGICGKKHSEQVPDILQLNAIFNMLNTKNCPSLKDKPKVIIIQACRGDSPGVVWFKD
T1 sequence (P29466 317-404 limits assumed): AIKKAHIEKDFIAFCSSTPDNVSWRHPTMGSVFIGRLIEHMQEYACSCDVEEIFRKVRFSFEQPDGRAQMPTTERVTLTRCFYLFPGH
Description: The progress curves are fit to the equation F=F0 +Vf.t+(Vi -Vf) (1-exp(-kobs t))/kobs, where F0 is the initial fluorescence, Vi and Vf are initial and final reaction velocities, and kobs is the pseudo first-order rate of inhibition. Ki is calculated as Ki =SPF.[I]Vf /(Vi -Vf), where the substrate protection factor (SPF) is 1+[S]/Km =17.7. kon is calculated as SPF.kobs /[I].

Question: How did the “cell viability after treatment (MTT assay)” value [1] turn out when `CC(=O)N[C@@H](Cc1ccc(O)cc1)C(=O)N[C@H](C(=O)N[C@@H](C)C(=O)N[C@H](C=O)CCC(=O)O)C(C)C` [Ac-Tyr-Val-Ala-Glu[CHO]] (Ac-YVAE-aldehyde) was run?
Answer: Its value is greater than 95%.

Question: What about the Ki ([2]; ICE 0.24 nM, 250 μM substrate Ac-Tyr-Val-Ala-Asp-AMC, corrected by SPF 17.7, read-out: Ki against ICE) of the same compound?
Answer: Its Ki is 1.8 nM.

Question: What about the kon ([2]; kon = SPF.kobs/[I], read-out: kon against ICE) of the same compound?
Answer: Its kon is 17200 M⁻¹ s⁻¹.
